Assay results reported in patent US11345658B2, “Compounds and compositions comprising the same for treating hypertension or heart failure” (QUANTUM GENOMICS, priority 2019, dated 2022).
Blank lines part the entries; values can stand above or below the molecule they belong to.

Experiments:
[1] = test system: post-MI mice; test: Left ventricular ejection fraction (LVEF) by echocardiography in mice post myocardial infarction; format: in vivo, CD1 mice; conditions: mice 4 weeks post MI, Mean±SEM
Description: Adult male CD1 mice were anesthetized with a mixture of 100 mg/kg ketamine (Imalgene 1000, Merial, Lyon, France) and 10 mg/kg xylazine (Rompun 2%, Bayer Healthcare, Loos, France), via intraperitoneal injection, intubated and ventilated at a rate of 200 insufflations/min, with a mean insufflate volume of 0.2 mL (Bioseb, France). The skin was disinfected and incised between the 2nd and 3rd intercostal space and the heart was exposed by left thoracotomy. Pericardium was opened and the left anterior descending (LAD) coronary artery infarction was permanently ligatured between the pulmonary artery trunk and the left atrial appendage, with 8/0 […] suture. (PVDF monofilament, 8-0, Peters Surgical, Bobigny, France). Ischemia was confirmed by visible left ventricle (LV) bleaching under the ligature. The thorax was then closed by three discontinuous points (PVDF monofil, 6/0, Peters Surgical, Bobigny, France) then mice received a subcutaneously injection of Meloxicam 1 mg/kg (Metacam, Boehringer Ingelheim, Germany) for prolonged analgesia. The pneumothorax was drained. The muscles and skin were then sutured (prolene thread 6-0, Peters Surgical, France) and the animals were rehydrated with saline at 37° C. Animals were extubated as soon as they could breathe spontaneously. The animal was placed in a cage and monitored regularly over 48 hours. Mice received an injection of Meloxicam 1 mg/kg, 24 hours postsurgery and up to 72 hours. The same surgical procedure was performed without LAD coronary artery ligation in sham-operated mice.
Post-MI mice received chronic oral treatment firibastat (RB150 used as a reference of brain APA inhibitor) at 150 mg/kg, ramipril (ACE inhibitor as standard treatment) at 1.25 mg/kg, or example 2 at 25 mg/kg with peanut butter vehicle. […] Cardiac function was evaluated regularly by trans-thoracic echocardiography at 4 weeks post MI to analyze the effects of different chronic oral treatment on heart contractility.

[2] = biological target: T1, recombinant mouse APA (Mus musculus, UniProt P16406); test: Measurement of APA activity in vitro (GluβNa hydrolysis, microplate); format: biochemical; conditions: 200 μM Glu-βNa, pH 7.4, 37° C., dithiothreitol, 4 mM CaCl2
T1 sequence (P16406 1-945): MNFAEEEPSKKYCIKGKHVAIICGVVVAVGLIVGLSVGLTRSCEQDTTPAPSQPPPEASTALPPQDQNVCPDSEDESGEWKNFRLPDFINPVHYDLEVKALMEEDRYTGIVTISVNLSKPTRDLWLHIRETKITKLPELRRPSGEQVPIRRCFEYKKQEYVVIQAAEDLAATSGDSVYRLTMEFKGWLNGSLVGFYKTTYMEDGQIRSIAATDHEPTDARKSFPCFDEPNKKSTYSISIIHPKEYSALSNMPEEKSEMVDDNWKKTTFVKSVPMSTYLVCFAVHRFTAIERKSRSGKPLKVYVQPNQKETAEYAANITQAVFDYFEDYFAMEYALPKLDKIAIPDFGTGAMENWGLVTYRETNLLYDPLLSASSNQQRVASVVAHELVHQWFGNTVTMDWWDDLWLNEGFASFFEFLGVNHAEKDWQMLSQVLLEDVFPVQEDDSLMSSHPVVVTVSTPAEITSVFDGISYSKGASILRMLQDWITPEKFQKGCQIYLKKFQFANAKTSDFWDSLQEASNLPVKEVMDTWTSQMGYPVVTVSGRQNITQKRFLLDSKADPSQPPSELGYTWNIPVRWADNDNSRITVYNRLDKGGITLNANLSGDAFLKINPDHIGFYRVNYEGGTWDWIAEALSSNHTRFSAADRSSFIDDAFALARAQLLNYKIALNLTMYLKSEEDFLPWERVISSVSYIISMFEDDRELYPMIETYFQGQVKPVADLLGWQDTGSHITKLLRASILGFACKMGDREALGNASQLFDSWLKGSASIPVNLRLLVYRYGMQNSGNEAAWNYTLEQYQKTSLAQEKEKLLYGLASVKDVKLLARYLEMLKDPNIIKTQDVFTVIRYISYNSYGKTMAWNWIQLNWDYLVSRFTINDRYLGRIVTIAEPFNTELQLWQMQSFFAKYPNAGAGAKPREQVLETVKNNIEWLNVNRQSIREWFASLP
Source text: Measurement of APA activity in vitro is based on the protocol of Goldbarg adjusted to the scale of assaying on microplates (Pro Bind™ 3915) (Chauvel et al., 1994). In vitro, in the presence of calcium ions, APA hydrolyses a synthetic substrate α-L-glutamyl-β-naphthylamide (GluβNa) to glutamate and β-naphthylamine ([…]). A diazotation reaction in acidic medium makes it possible to reveal the β-naphthylamine by formation of a violet-colored complex: spectrophotometric measurement then makes it possible to know the amount of complex formed and, by reference to a standard curve produced with increasing concentrations of β-naphthylamine, to deduce the enzymatic activity of the sample.
The Glu-βNa substrate (Bachem) and the β-naphthylamine (Sigma) are dissolved in 50% DMSO (dimethyl sulphoxide) and 0.1 N HCl respectively, and conserved at −20° C. at a concentration of 10^−2 M. The diazotation reaction is carried out in the presence of sodium nitrite (87 mM), ammonium sulfamate (130 mM) and N-(1-naphthyl)-ethylenediamine dihydrochloride (23 mM in 95% ethanol). […]
The absorbance is then measured at 540 nm. […]

[3] = test system: hypertensive DOCA-salt rats; test: Measurement of mean arterial blood pressure (MABP) and heart rate (HR) in conscious hypertensive DOCA-salt rats; format: in vivo; conditions: 8 mg/kg p.o.
Description: Male DOCA-salt rats were anesthetized with 3% isoflurane (Iso-vet®, Piramal, UK) for induction and 1.5-2% isoflurane for maintenance. A catheter was inserted into the right femoral artery to monitor MABP and HR. The catheter was tunneled subcutaneously to exit from the neck. Animals were maintained for 2 days in the animal room, under frequent observation, before MABP and HR recording. Baseline MABP and HR were recorded for at least 60 min before Example 2 was administered p.o. (8 mg/kg, in a volume of 400 μL). MABP and HR were recorded continuously for 6 h after treatment.

[4] = biological target: T2, brain APA (Rattus norvegicus, UniProt P50123); test: Measurement of brain APA activity ex vivo after p.o. administration in DOCA-salt rats; conditions: 8 mg/kg p.o., 180 min after administration
T2 construct: from tissue; host or cells: DOCA-salt rat brain homogenate
T2 sequence (P50123 whole entry): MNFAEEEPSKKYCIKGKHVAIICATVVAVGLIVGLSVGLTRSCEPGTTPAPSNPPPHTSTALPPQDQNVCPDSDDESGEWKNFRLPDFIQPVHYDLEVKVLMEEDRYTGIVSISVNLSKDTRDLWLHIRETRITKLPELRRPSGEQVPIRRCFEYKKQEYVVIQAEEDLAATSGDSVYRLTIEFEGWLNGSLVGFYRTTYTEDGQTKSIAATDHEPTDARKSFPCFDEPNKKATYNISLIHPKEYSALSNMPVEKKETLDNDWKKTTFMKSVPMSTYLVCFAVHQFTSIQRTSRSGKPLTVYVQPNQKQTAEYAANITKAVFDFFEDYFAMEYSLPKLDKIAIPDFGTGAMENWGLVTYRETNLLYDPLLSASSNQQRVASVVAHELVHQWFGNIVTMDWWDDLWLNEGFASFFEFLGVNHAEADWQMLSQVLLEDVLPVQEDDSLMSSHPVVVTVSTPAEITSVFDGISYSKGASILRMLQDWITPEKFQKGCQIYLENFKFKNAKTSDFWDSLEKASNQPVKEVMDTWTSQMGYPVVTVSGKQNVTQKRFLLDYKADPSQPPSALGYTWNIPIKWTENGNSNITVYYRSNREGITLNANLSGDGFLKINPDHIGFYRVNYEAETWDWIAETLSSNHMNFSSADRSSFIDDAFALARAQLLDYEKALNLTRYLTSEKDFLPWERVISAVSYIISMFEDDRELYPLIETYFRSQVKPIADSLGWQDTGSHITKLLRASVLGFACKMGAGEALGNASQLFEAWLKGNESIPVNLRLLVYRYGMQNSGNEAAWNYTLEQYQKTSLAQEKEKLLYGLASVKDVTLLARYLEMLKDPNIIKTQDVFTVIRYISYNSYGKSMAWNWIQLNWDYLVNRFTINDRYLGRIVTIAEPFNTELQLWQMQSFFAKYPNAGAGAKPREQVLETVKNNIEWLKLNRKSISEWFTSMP
Description: (§1) Brain APA activity was determined as described above
In vivo, in DOCA-salt rats (male, 250 g Charles River), Example 2 was administered p.o. (8 mg/kg, in a volume of 400 μL).
(§2) For each condition, four to sixteen mice and five to seven rats were used. Animals were sacrificed 180 min after the administration. The brains were immediately removed and homogenized by sonication in 10 vol of ice-cold 50 mM Tris-HCl buffer (pH 7.4). APA enzymatic activity was measured on brain homogenates. For this purpose, aliquots of the tissue homogenate (16 μL) were incubated for 30 min at 37° C. with 200 μM of Glu-βNa, 4 mM CaCl2, and 1 μM bestatin inhibitor, with or without 5 μM EC33, in a total volume of 100 μL of 50 mM Tris-HCl buffer (pH 7.4). Then the assay was pursued as described above.

[5] = biological target: T3, brain APA (Mus musculus, UniProt P16406); test: Measurement of brain APA activity ex vivo after i.v. administration in mice; conditions: 50 mg/kg i.v., 180 min after administration
T3 construct: from tissue; host or cells: mouse brain homogenate
T3 sequence (P16406 1-945): T1 sequence (P16406 1-945)
Description: as §1
In vivo, in mice (male, 18-20 g Charles River), Example 1 was administered i.v. (50 mg/kg, in a volume of 200 μL).
as §2

SMILES: N[C@@H](CCS(=O)(=O)O)CSSC[C@@H](N)CCS(=O)(=O)O [firibastat]
- LVEF ([1]; chronic oral 150 mg/kg once daily for 4 weeks): 50.9±1%

- In vitro inhibition of aminopeptidase A, Results [2]: 0.18 ± 0.02 µM
- decrease of brain APA activity ([4]; vs. control): 29%
SMILES: N[C@@H](CSS[C@@H](CCc1ccccc1)[C@@H](N)CCS(=O)(=O)O)C(=O)O [Example 2, (2R)-2-amino-3-{[(3S,4S)-4-amino-1-phenyl-6-sulfohexan-3-yl]disulfanyl}propanoic acid]
- effect on HR ([3]; 0 to 6 h after administration): no effect
- decrease in MABP ([3]; 3 h after administration): −27±11 mmHg
- decrease in MABP ([3]; 6 h after treatment): −44±8 mmHg
- LVEF ([1]; chronic oral 25 mg/kg once daily for 4 weeks): 50.6±0.9%
- brain APA activity ([4]; brain homogenate): 46.1±2.4 nmol of Glu-βNa hydrolyzed per mg of protein per h

SMILES: CCOC(=O)[C@H](CCc1ccccc1)N[C@@H](C)C(=O)N1[C@H](C(=O)O)C[C@@H]2CCC[C@@H]21 [ramipril]
- LVEF ([1]; chronic oral 1.25 mg/kg once daily for 4 weeks): 48.4±1.2%

- In vitro inhibition of aminopeptidase A, Results [2]: 0.81 ± 0.05 µM
- decrease of brain APA activity ([5]; vs. control): 45%
SMILES: N[C@@H](CCS(=O)(=O)O)CSSC[C@H](N)C(=O)O [Example 1, (2R)-2-amino-3-{[(2S)-2-amino-4-sulfobutyl]disulfanyl}propanoic acid]
- brain APA activity ([5]; brain homogenate): 39.6±5.2 nmol of Glu-βNa hydrolyzed per mg of protein per h
